How the values were obtained:
Assay type in all cases: cell-based
hNLRP3 = molecular target: T1, hNLRP3 (Homo sapiens, UniProt Q96P20); experiment: hNLRP3 agonist assay: IL-1β production in PMA-differentiated THP-1 cells (ELISA); conditions: Table 2, 4 hours, IL-1β by ELISA
T1 construct: THP-1 cells were purchased from the American Type Culture Collection; host or cells: THP-1 cells, PMA-differentiated

TLR7 = molecular target: T2, TLR7 (Homo sapiens, UniProt Q9NYK1); experiment: TLR7 EC50 assay; conditions: Table 2
T2 sequence (Q9NYK1 27-1049): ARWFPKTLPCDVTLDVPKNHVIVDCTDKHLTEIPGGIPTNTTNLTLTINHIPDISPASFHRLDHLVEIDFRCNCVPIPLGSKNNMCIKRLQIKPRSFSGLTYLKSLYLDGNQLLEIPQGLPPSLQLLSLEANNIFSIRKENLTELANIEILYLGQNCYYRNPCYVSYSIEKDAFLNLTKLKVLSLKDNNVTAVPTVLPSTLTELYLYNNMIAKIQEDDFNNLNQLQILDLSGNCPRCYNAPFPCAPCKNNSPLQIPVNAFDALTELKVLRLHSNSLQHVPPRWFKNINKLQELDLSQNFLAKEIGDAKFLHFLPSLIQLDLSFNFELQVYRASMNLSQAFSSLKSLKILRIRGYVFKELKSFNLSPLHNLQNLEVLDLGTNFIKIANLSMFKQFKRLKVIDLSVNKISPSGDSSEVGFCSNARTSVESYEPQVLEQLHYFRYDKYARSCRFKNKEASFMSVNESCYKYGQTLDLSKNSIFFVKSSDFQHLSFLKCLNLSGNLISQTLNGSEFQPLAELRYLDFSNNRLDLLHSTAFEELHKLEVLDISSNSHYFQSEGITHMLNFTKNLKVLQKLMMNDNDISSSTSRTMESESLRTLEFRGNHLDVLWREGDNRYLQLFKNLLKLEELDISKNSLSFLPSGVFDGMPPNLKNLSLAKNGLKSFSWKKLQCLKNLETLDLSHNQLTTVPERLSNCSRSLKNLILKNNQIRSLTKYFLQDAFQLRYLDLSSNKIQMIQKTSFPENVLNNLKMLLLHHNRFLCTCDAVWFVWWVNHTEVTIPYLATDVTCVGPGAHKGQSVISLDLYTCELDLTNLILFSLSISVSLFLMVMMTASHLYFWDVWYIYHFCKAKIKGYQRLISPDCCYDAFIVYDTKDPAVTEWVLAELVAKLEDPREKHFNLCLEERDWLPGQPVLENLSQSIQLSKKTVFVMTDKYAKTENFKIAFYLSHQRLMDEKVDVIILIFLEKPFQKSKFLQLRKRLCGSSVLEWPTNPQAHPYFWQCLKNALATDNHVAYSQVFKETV

TLR8 = molecular target: T3, TLR8 (Homo sapiens, UniProt Q9NR97); experiment: TLR8 EC50 assay; conditions: Table 2
T3 sequence (Q9NR97 27-1041): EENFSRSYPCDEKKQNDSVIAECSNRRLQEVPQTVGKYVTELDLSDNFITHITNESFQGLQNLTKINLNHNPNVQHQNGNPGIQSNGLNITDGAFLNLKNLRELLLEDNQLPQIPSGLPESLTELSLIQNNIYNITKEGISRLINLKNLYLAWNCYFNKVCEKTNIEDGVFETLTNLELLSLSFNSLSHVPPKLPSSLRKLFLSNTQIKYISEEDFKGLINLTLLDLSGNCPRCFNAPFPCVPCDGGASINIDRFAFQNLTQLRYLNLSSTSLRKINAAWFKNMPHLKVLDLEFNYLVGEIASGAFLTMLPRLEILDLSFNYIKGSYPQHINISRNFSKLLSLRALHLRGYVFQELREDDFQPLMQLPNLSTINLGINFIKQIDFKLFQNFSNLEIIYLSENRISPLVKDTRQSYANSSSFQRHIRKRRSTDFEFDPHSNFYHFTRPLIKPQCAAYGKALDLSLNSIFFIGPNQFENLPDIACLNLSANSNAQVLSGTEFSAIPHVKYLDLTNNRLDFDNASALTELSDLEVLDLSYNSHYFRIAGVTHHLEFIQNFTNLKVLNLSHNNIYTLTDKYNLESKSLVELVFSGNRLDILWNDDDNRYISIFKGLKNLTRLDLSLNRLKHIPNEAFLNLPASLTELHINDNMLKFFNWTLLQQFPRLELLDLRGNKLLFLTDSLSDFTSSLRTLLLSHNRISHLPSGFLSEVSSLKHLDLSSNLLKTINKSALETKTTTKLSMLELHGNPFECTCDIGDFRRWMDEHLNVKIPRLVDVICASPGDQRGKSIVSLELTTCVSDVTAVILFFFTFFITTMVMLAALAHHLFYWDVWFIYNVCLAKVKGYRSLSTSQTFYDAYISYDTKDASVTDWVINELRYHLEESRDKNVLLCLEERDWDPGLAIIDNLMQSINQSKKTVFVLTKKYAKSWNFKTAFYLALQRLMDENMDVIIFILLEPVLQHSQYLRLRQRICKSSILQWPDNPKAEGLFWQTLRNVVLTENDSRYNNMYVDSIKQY

T1 sequence (Q96P20 whole entry): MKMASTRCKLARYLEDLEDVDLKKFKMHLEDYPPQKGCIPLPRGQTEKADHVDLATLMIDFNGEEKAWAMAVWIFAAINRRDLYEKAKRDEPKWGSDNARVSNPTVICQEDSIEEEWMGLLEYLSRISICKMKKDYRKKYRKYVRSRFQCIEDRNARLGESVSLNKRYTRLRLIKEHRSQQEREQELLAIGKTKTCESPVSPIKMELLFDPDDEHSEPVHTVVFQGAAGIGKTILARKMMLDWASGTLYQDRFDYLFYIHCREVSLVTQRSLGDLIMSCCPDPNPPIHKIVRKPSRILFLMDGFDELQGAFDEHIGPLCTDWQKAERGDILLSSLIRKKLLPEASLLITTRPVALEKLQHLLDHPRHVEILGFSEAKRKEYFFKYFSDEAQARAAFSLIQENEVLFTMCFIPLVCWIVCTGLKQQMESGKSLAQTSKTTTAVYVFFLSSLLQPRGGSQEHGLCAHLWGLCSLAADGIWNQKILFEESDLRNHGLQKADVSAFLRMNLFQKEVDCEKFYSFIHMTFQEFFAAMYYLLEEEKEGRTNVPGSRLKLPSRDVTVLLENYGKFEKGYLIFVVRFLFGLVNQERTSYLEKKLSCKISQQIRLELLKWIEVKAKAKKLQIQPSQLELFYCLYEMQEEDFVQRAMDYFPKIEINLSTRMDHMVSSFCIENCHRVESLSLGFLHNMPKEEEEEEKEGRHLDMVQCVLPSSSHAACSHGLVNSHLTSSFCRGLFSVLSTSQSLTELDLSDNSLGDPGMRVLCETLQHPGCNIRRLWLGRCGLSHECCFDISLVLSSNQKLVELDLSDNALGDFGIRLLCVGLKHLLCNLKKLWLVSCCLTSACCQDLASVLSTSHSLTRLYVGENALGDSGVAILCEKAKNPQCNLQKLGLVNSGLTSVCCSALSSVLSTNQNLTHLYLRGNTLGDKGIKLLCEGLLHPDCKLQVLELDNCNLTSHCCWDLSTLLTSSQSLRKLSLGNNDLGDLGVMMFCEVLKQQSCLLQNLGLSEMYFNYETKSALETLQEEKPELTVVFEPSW

Row | Structure (SMILES) | EC50 (hNLRP3) [µM] | EC50 (TLR7) [µM] | EC50 (TLR8) [µM]
1 | CC(C)(C)OC(=O)N1CCC(c2nc3c(N)nc4cc(-c5ccccc5)ccc4c3[nH]2)CC1 [Compound 219] | ≤ 1 | > 100 | > 100
2 | Nc1nc2cc(Br)ccc2c2[nH]c(C3CCN(S(=O)(=O)c4ccccc4)CC3)nc12 [Compound 220] | 1 to 20 | > 100 | > 100
3 | CC(C)(C)OC(=O)N1CCC(c2nc3c(N)nc4cc(-c5cccnc5)ccc4c3[nH]2)CC1 [Compound 221] | 1 to 20 | > 100 | > 100
4 | Nc1nc2cc(-c3ccccc3)ccc2c2[nH]c(C3CCNCC3)nc12 [Compound 222] | 1 to 20 | > 100 | > 100
5 | Nc1nc2ccccc2c2[nH]c(C3CCNCC3)nc12 [Compound 224] | 20 to 100 | > 100 | > 100
6 | CC(C)(C)OC(=O)N1CCC(c2nc3c(N)nc4cc(Br)ccc4c3[nH]2)CC1 [Compound 225] | 1 to 20 | > 100 | > 100
7 | CC(=O)N1CCC(c2nc3c(N)nc4cc(Br)ccc4c3[nH]2)CC1 [Compound 226] | 20 to 100 | > 100 | > 100
8 | CC(=O)NCCCn1c(C2CCN(C(=O)c3ccccc3)CC2)nc2c(N)nc3cc(Br)ccc3c21 [Compound 227] | 20 to 100 | > 100 | > 100
9 | CN1CCC(c2nc3c(N)nc4ccccc4c3[nH]2)CC1 [Compound 228] | 20 to 100 | > 100 | > 100
10 | Nc1nc2cc(-c3cc[nH]n3)ccc2c2[nH]c(CN3CC4COCC4C3)nc12 (stereo not drawn) [Compound 232] | 1 to 20 | > 100 | > 100
11 | Nc1nc2cc(-c3cc[nH]n3)ccc2c2[nH]c(CN3CCCC3)nc12 [Compound 233] | ≤ 1 | > 100 | > 100
12 | Nc1nc2cc(-c3ccc[nH]c3=O)ccc2c2[nH]c(CCCO)nc12 [Compound 238] | 1 to 20 | > 100 | > 100
13 | Nc1nc2cc(-c3cccc(=O)[nH]3)ccc2c2[nH]c(CCCO)nc12 [Compound 239] | 1 to 20 | > 100 | > 100
14 | CCNC(C)c1nc2c(N)nc3cc(-c4cc[nH]n4)ccc3c2[nH]1 (stereo not drawn) [Compound 240] | 1 to 20 | > 100 | > 100
15 | CCN(C(C)=O)C(C)c1nc2c(N)nc3cc(-c4cc[nH]n4)ccc3c2[nH]1 (stereo not drawn) [Compound 241] | 1 to 20 | > 100 | > 100
16 | CCN(C(=O)OC(C)(C)C)C(C)c1nc2c(N)nc3cc(-c4cc[nH]n4)ccc3c2n1Cc1ccc(OC)cc1 (stereo not drawn) [Compound 242] | 1 to 20 | > 100 | > 100
17 | COc1cccc(-c2ccc3c(c2)nc(N)c2nc(CCCO)[nH]c23)n1 [Compound 246] | 1 to 20 | > 100 | > 100
18 | COc1cccc(-c2ccc3c(c2)nc(N)c2nc(CCCOCc4ccccc4)[nH]c23)n1 [Compound 247] | 1 to 20 | > 100 | > 100
19 | Nc1nc2cc(-c3ccc[nH]c3=O)ccc2c2[nH]c(CCCOCc3ccccc3)nc12 [Compound 249] | 1 to 20 | > 100 | > 100
20 | CCNC(C)(C)c1nc2c(N)nc3cc(-c4cc[nH]n4)ccc3c2[nH]1 [Compound 251] | 1 to 20 | > 100 | > 100
21 | CCN(C(=O)OC(C)(C)C)C(C)(C)c1nc2c(N)nc3cc(-c4cc[nH]n4)ccc3c2n1Cc1ccc(OC)cc1 [Compound 252] | 1 to 20 | > 100 | > 100
22 | CCN(C(C)=O)C(C)(C)c1nc2c(N)nc3cc(-c4cc[nH]n4)ccc3c2[nH]1 [Compound 253] | 1 to 20 | > 100 | > 100

Source: patent publication US11072612B2, “NLRP3 modulators” (INNATE TUMOR IMMUNITY, INC., priority 2016, dated 2021)
